Test results published in patent US20250270209A1 (INTERLINE THERAPEUTICS, INC., priority 2022, published 2025).

How the values were obtained:
LRRK2 wild type enzyme = LRRK2 wild type enzyme (Homo sapiens, UniProt Q5S007); assay: Biochemical Assay: LRRK2 TR-FRET (LanthaScreen) kinase assay with LRRKtide substrate; details: LRRK2 Inhibition, Table 8
Method in brief: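 Human wild-type LRRK2 (3 nM) preincubated 15 min with compound (11-point, 3-fold, top 10 μM), then reacted 120 min at 23 °C with 400 nM LRRKtide and 25 μM ATP, pH 8.0. Stopped with EDTA; Tb-anti-pLRRKtide TR-FRET read after 30 min.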

[1] = target: T1, wild type LRRK2 overexpressed in recombinant HEK-293T cells (Homo sapiens, UniProt Q5S007); assay: pS935 LRRK2 Cell Assay (HTRF, phospho-LRRK2 Ser935); format: cell-based; details: LRRK2 Inhibition, Table 8, 2 hours compound incubation
T1 construct: host or cells: HEK293T (transient transfection with pCMV-LRRK2 WT plasmid)
Method in brief: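 HEK-293T cells transiently transfected with wild-type LRRK2 for 24 h, plated overnight, then treated 2 h at 37° C with compound (top 10 μM, 3-fold, 9 doses, duplicates, 0.2% DMSO). Lysates probed overnight at 23° C by sandwich HTRF for pSer935; 665/615 nm ratio read.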

T1 sequence (Q5S007 whole entry): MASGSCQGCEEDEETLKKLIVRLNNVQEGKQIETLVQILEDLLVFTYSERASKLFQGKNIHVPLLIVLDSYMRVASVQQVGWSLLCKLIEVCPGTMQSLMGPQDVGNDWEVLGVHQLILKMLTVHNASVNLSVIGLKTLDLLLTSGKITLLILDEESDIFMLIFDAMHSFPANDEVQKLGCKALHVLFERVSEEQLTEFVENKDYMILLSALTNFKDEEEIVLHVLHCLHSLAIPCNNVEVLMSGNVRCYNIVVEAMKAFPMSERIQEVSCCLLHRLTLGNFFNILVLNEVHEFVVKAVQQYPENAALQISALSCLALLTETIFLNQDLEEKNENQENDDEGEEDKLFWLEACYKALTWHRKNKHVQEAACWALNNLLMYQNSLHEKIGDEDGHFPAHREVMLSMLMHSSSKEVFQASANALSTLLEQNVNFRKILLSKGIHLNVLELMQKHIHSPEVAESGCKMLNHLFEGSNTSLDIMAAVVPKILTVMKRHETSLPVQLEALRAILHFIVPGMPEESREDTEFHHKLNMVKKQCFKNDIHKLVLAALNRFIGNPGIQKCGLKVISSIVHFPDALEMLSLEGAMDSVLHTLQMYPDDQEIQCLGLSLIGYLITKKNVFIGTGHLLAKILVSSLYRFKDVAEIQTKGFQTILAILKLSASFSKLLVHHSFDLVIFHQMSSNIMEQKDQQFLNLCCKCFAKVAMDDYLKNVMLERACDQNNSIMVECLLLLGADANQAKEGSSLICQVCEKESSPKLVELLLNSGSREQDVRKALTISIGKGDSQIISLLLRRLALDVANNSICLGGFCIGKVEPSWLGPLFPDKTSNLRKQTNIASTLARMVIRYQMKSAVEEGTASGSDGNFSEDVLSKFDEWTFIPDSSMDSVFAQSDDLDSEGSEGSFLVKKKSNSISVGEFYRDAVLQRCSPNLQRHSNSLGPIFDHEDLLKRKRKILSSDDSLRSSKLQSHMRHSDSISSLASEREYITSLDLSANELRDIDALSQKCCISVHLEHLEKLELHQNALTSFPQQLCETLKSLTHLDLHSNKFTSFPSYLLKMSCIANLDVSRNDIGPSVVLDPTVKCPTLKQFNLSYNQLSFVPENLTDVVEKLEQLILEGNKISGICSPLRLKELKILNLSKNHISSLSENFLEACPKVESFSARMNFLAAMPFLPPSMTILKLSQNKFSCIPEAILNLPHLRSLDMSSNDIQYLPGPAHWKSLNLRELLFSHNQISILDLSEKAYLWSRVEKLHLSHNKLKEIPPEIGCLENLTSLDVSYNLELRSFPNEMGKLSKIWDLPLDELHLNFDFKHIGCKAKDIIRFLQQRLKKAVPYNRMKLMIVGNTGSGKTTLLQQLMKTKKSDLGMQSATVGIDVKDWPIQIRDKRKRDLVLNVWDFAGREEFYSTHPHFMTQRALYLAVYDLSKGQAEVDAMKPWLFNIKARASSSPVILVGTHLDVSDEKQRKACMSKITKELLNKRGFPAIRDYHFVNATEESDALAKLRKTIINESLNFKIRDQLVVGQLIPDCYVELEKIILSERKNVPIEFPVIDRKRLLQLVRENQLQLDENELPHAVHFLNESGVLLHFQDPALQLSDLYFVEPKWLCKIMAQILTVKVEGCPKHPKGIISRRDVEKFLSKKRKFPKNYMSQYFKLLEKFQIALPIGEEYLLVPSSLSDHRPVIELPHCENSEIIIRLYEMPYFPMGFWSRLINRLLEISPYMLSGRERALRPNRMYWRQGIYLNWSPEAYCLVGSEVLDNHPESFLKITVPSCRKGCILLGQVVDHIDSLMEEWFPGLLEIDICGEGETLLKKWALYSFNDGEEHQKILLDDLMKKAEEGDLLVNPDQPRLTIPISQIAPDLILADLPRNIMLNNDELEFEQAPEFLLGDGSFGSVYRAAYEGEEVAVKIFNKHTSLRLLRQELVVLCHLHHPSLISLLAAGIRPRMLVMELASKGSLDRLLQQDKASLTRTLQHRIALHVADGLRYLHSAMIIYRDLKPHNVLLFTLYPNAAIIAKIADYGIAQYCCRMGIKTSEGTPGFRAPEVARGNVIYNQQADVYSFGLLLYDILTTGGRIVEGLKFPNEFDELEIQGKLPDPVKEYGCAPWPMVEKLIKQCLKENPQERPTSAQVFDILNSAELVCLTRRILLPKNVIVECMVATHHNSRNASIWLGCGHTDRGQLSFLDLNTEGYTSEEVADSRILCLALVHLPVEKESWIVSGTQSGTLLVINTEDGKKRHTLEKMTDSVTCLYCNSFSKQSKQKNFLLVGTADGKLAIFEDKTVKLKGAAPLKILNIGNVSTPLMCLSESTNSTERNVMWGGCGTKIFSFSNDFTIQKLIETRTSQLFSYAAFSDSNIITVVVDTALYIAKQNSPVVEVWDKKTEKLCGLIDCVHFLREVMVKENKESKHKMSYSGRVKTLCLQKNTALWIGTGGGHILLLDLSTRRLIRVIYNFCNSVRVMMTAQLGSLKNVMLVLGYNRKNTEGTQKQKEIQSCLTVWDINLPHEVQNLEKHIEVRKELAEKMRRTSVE
Sequence of LRRK2 wild type enzyme (Q5S007 whole entry): as above

Row | Compound | IC50 (LRRK2 wild type enzyme) [nM] | IC50 [1] [nM]
1 | C[C@@H]1C[C@H](n2c(CC(=O)Nc3nccc(C4CC4)n3)nc3cnc4ccc(C#N)cc4c32)CCO1 [Compound 338, N-(4-cyclopropyl-2-pyrimidinyl){3-[(2R,4R)-2-methyltetrahydro-2H-pyran-4-yl]-12-cyano-3,5,8-triazatricyclo[7.4.0.0^2,6]trideca-1(9),2(6),4,7,10,12-hexaen-4-yl}acetamide] | 0.364 | 1.87
2 | Cc1ncc(NC(=O)Cc2nc3cnc4ccc(C#N)cc4c3n2[C@@H]2CCO[C@H](C)C2)cn1 [Compound 329, N-(2-methyl-5-pyrimidinyl){3-[(2R,4R)-2-methyltetrahydro-2H-pyran-4-yl]-12-cyano-3,5,8-triazatricyclo[7.4.0.0^2,6]trideca-1(9),2(6),4,7,10,12-hexaen-4-yl}acetamide] | 0.483 | 16.5
3 | C[C@@H]1C[C@H](n2c(CC(=O)NCCO)nc3cnc4ccc(Cl)cc4c32)CCO1 [Compound 163, 2-{8-chloro-1-[(2R,4R)-2-methyloxan-4-yl]-1H-imidazo[4,5-c]quinolin-2-yl}-N-(2-hydroxyethyl)acetamide] | 0.676 | 43.8
4 | Cc1ccc(NC(=O)Cc2nc3cnc4ccc(C#N)cc4c3n2[C@@H]2CCO[C@H](C)C2)cn1 [Compound 319, N-(6-methyl-3-pyridyl){3-[(2R,4R)-2-methyltetrahydro-2H-pyran-4-yl]-12-cyano-3,5,8-triazatricyclo[7.4.0.0^2,6]trideca-1(9),2(6),4,7,10,12-hexaen-4-yl}acetamide] | 0.542 | 5.93
5 | CNC(=O)Cc1nc2cnc3ccc(C#N)cc3c2n1[C@@H]1CCO[C@H](C)C1 [Compound 82, 2-{8-cyano-1-[(2R,4R)-2-methyloxan-4-yl]-1H-imidazo[4,5-c]quinolin-2-yl}-N-methylacetamide] | 0.83 | 81.8
6 | C[C@@H]1C[C@H](n2c(CC(=O)Nc3cn(C)ccc3=O)nc3cnc4ccc(C#N)cc4c32)CCO1 [Compound 234, N-(1-methyl-4-oxo-1,4-dihydro-3-pyridyl){3-[(2R,4R)-2-methyltetrahydro-2H-pyran-4-yl]-12-cyano-3,5,8-triazatricyclo[7.4.0.0^2,6]trideca-1,4,6,8,10,12-hexaen-4-yl}acetamide] | 0.659 | 407
7 | C[C@@H]1C[C@H](n2c(CC(=O)NC3CCC3)nc3cnc4ccc(Cl)cc4c32)CCO1 [Compound 332, N-cyclobutyl{3-[(2R,4R)-2-methyltetrahydro-2H-pyran-4-yl]-12-chloro-3,5,8-triazatricyclo[7.4.0.0^2,6]trideca-1(9),2(6),4,7,10,12-hexaen-4-yl}acetamide] | 0.741 | 10.9
8 | C[C@@H]1C[C@H](n2c(CC(=O)NC3(CO)CC3)nc3cnc4ccc(C#N)cc4c32)CCO1 [Compound 286, N-1-(hydroxymethyl)cyclopropyl{3-[(2R,4R)-2-methyltetrahydro-2H-pyran-4-yl]-12-cyano-3,5,8-triazatricyclo[7.4.0.0^2,6]trideca-1,4,6,8,10,12-hexaen-4-yl}acetamide] | 1.45 | 907
9 | Cc1cc(C)c(NC(=O)Cc2nc3cnc4ccc(C#N)cc4c3n2[C@@H]2CCO[C@H](C)C2)cn1 [Compound 236, N-(4,6-dimethyl-3-pyridyl){3-[(2R,4R)-2-methyltetrahydro-2H-pyran-4-yl]-12-cyano-3,5,8-triazatricyclo[7.4.0.0^2,6]trideca-1,4,6,8,10,12-hexaen-4-yl}acetamide] | 0.356 | 7.37
10 | COCCn1cc(N2CC(c3nc4cnc5ccc(C#N)cc5c4n3[C@@H]3CCO[C@H](C)C3)CC2=O)cn1 (stereo partly drawn) [Compound 171, 2-{1-[1-(2-methoxyethyl)-1H-pyrazol-4-yl]-5-oxopyrrolidin-3-yl}-1-[(2R,4R)-2-methyloxan-4-yl]-1H-imidazo[4,5-c]quinoline-8-carbonitrile] | 1.46 | 434
11 | C[C@@H]1C[C@H](n2c(CC(=O)N(C)CC(F)(F)F)nc3cnc4ccc(C#N)cc4c32)CCO1 [Compound 81, 2-{8-cyano-1-[(2R,4R)-2-methyloxan-4-yl]-1H-imidazo[4,5-c]quinolin-2-yl}-N-methyl-N-(2,2,2-trifluoroethyl)acetamide] | 10.5 | 728
12 | CC(=O)N1CC[C@H](c2nc3cnc4ccc(C#N)cc4c3n2[C@@H]2CCO[C@H](C)C2)C1 [Compound 43, 2-[(3S)-1-acetylpyrrolidin-3-yl]-1-[(2R,4R)-2-methyloxan-4-yl]-1H-imidazo[4,5-c]quinoline-8-carbonitrile] | 12.4 | 1680
13 | C[C@@H]1C[C@H](n2c(CS(=O)(=O)NCC3CC3)nc3cnc4ccc(C#N)cc4c32)CCO1 [Compound 55, 1-{8-cyano-1-[(2R,4R)-2-methyloxan-4-yl]-1H-imidazo[4,5-c]quinolin-2-yl}-N-(cyclopropylmethyl)methanesulfonamide] | 2.3 | 272
14 | C[C@@H]1C[C@H](n2c(CC(=O)Nc3nccs3)nc3cnc4ccc(C#N)cc4c32)CCO1 [Compound 335, N-(1,3-thiazol-2-yl){3-[(2R,4R)-2-methyltetrahydro-2H-pyran-4-yl]-12-cyano-3,5,8-triazatricyclo[7.4.0.0^2,6]trideca-1(9),2(6),4,7,10,12-hexaen-4-yl}acetamide] | 0.433 | 4.06
15 | C[C@@H]1C[C@H](n2c(CC(=O)Nc3cnn(C4CCC4)c3)nc3cnc4ccc(C#N)cc4c32)CCO1 [Compound 305, N-(1-cyclobutyl-4-pyrazolyl){3-[(2R,4R)-2-methyltetrahydro-2H-pyran-4-yl]-12-cyano-3,5,8-triazatricyclo[7.4.0.0^2,6]trideca-1,4,6,8,10,12-hexaen-4-yl}acetamide] | 0.633 | 12.3
16 | C[C@@H]1C[C@H](n2c(C3CCN(C(=O)c4cccnn4)CC3)nc3cnc4ccc(C#N)cc4c32)CCO1 [Compound 117, 1-[(2R,4R)-2-methyloxan-4-yl]-2-[1-(pyridazine-3-carbonyl)piperidin-4-yl]-1H-imidazo[4,5-c]quinoline-8-carbonitrile] | 1.24 | 503
17 | C[C@@H]1C[C@H](n2c(CN3CCC(C(=O)O)C3)nc3cnc4ccc(C#N)cc4c32)CCO1 (stereo partly drawn) [Compound 77, 1-({8-cyano-1-[(2R,4R)-2-methyloxan-4-yl]-1H-imidazo[4,5-c]quinolin-2-yl}methyl)pyrrolidine-3-carboxylic acid] | 34.2 | 5160
18 | COc1ncc(NC(=O)Cc2nc3cnc4ccc(C#N)cc4c3n2[C@@H]2CCO[C@H](C)C2)cn1 [Compound 291, N-(2-methoxy-5-pyrimidinyl){3-[(2R,4R)-2-methyltetrahydro-2H-pyran-4-yl]-12-cyano-3,5,8-triazatricyclo[7.4.0.0^2,6]trideca-1,4,6,8,10,12-hexaen-4-yl}acetamide] | 0.527 | 18
19 | C[C@@H]1C[C@H](n2c(CC(=O)Nc3ccn(C4CC4)n3)nc3cnc4ccc(C#N)cc4c32)CCO1 [Compound 354, N-(1-cyclopropyl-3-pyrazolyl){3-[(2R,4R)-2-methyltetrahydro-2H-pyran-4-yl]-12-cyano-3,5,8-triazatricyclo[7.4.0.0^2,6]trideca-1(9),2(6),4,7,10,12-hexaen-4-yl}acetamide] | 0.447 | 14.8
